What all share (assay): growth of human tumour cells (NCI), 48 h
In experiment [1] the test system is M19-MEL.
The subject of experiment [2] is DMS-273.
Experiment [3] relates to KM-20L2.
The test system of experiment [4] is XF498.
For experiment [5], the system named is SNB-78.
For experiment [6], the system named is DMS-114.
In experiment [7] the test system is HOP-18.
The subject of experiment [8] is LXFL 529.
The subject of experiment [9] is RXF 631.

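Each compound was tested at five concentrations against cells in 96-well plates for 48 hours. GI50 = concentration required for 50% inhibition of growth.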 Calls of active or inactive are those of the source. Rule as the data show it: active = GI50 up to about 1.1 µM and inactive = higher. A value given as a limit tells only on which side of the number the result lay.

Consider `CCCSc1nc(COC(=O)NC)c(COC(=O)NC)n1C`, for which the GI50 was > 95.1 µM (inactive) in experiment [1]; > 95.5 µM (inactive) in experiment [2]; > 100 µM (inactive) in experiment [3]; > 100 µM (inactive) in experiment [4]; > 80.5 µM (inactive) in [5]; 38.7 µM (inactive) in experiment [6]. Further, the GI50 in experiment [7] was > 100 µM (inactive).
For `C/C=C/C(C#N)O[Si](C)(C)C` (stereo not given), the GI50 in experiment [1], in [8], in [2], in [3], in experiment [4] and in [5] was > 100 µM (inactive) each time. Moreover, the GI50 in experiment [6] and in experiment [7] was > 100 µM (inactive) each time.
As for `COC(=O)C(=O)C(C(=O)OC)C(=O)C(=O)Nc1cc(Cl)c(Cl)cc1Cl` (stereo not given), the GI50 in experiment [1] was > 100 µM (inactive); in [9], > 100 µM (inactive); in [8] it was > 100 µM (inactive); in experiment [2], 44.7 µM (inactive); in experiment [3], > 100 µM (inactive); in experiment [4], > 100 µM (inactive). For the same molecule, the GI50 in experiment [6] is 14.6 µM (inactive); in experiment [7], > 100 µM (inactive).
Turning to `CC1(C)C2CCC3(OCCO3)C1C1OC12` (stereo not given), the GI50 was > 100 µM (inactive) in experiment [9]; > 100 µM (inactive) in experiment [2]; > 100 µM (inactive) in experiment [3]; > 100 µM (inactive) in [4]; > 100 µM (inactive) in experiment [5]; 45.6 µM (inactive) in [7].
In the case of `COc1ccc(CCC2NCCc3cc(OC)c(OC)cc32)cc1` (stereo not given), the GI50 in experiment [8] was > 100 µM (inactive); in experiment [3], > 100 µM (inactive); in [4], > 100 µM (inactive); in experiment [5] it was 79.8 µM (inactive); in [7], > 100 µM (inactive).
For `C=C(Nc1ccc(OC)cc1OC)C(=O)Cc1cccc[n+]1[O-]`, the GI50 in experiment [1], in experiment [8], in [2], in experiment [3], in [4] and in [5] was > 100 µM (inactive) each time. Further, the GI50 in experiment [6] and in experiment [7] was > 100 µM (inactive) each time.
As for `N#CN=C(N(Cc1ccccc1)Cc1ccccc1)N(Cc1ccccc1)Cc1ccccc1`, the GI50 was 25.5 µM (inactive) in experiment [1]; 3.89 µM (inactive) in [8]; 16.4 µM (inactive) in experiment [3]; 12.5 µM (inactive) in [4]; > 100 µM (inactive) in [5]; 4.85 µM (inactive) in experiment [6]. Besides, in [7], the GI50 was > 100 µM (inactive).
In the case of `O=C1/C(=C/c2ccccc2)CN(C(=O)C(Cl)(Cl)Cl)C/C1=C\c1ccccc1`, the GI50 in experiment [1] is 1.33 µM (inactive); in experiment [8], 1.59 µM (inactive); in experiment [2], 1.06 µM (active); in experiment [3], 2.16 µM (inactive); in [5] it was 2.72 µM (inactive); in experiment [6], 1.6 µM (inactive). Also, in experiment [7], the GI50 is 2.96 µM (inactive).
On to `Cc1ccc(-c2nnc3s/c(=C\c4ccc(N(C)C)cc4)c(=O)n23)cc1`, for which the GI50 in [1], in [9], in [8], in experiment [2], in experiment [3] and in experiment [4] was > 100 µM (inactive) in each case. For the same molecule, the GI50 in [5], in experiment [6] and in experiment [7] was > 100 µM (inactive) in each case.
For `O=S(=O)(N/N=C/c1c(Cl)cccc1Cl)c1ccccc1`, the GI50 in experiment [1] is > 100 µM (inactive); in experiment [9], > 100 µM (inactive); in experiment [8], > 100 µM (inactive); in [2], > 100 µM (inactive); in [3], > 100 µM (inactive); in experiment [4], 68.4 µM (inactive). In addition, the GI50 in [5], in experiment [6] and in experiment [7] was > 100 µM (inactive) in each case.
In the case of `CC#C[C@@]1(O)CCCC[C@@H]1O`, the GI50 in experiment [1], in experiment [9], in [2], in experiment [3], in experiment [4] and in experiment [5] was > 100 µM (inactive) in each case. In addition, the GI50 in [6] and in [7] was > 100 µM (inactive) in each case.
Take `CC1=Nc2ccccc2C12C(c1ccccc1)C(c1ccccc1)C(=O)N1c3ccccc3CC12` (stereo not given): the GI50 in [9] is > 100 µM (inactive); in experiment [8] it was > 100 µM (inactive); in experiment [2] it was > 100 µM (inactive); in experiment [3] it was > 100 µM (inactive); in experiment [4], 11.9 µM (inactive); in experiment [5], > 100 µM (inactive). In addition, the GI50 in [6] was > 100 µM (inactive).
Regarding `CC1(C)OCC[C@@H]1[Si](C)(C)C`, the GI50 in [1] was > 100 µM (inactive); in experiment [9], > 100 µM (inactive); in experiment [8], > 100 µM (inactive); in experiment [2], 78.3 µM (inactive); in [3], > 100 µM (inactive); in experiment [4], 32.8 µM (inactive). Further, the GI50 in experiment [5] was > 100 µM (inactive); in experiment [6], 49.2 µM (inactive); in experiment [7] it was 23.1 µM (inactive).
With `CC(=O)c1cccc(NC(=O)C(=O)C(C(=O)c2ccccc2F)C2OC(=O)c3ccccc32)c1` (stereo not given), the GI50 is 23.1 µM (inactive) in experiment [1]; 21.1 µM (inactive) in [9]; 44 µM (inactive) in experiment [8]; 34 µM (inactive) in experiment [2]; 40.2 µM (inactive) in experiment [3]; 35.6 µM (inactive) in experiment [4]. The GI50 is 12.5 µM (inactive) in [5] and 31 µM (inactive) in experiment [6].
On to `CN(/N=C/c1cccc2cccnc12)c1ccc([N+](=O)[O-])cc1[N+](=O)[O-]`, for which the GI50 was > 78 µM (inactive) in [1]; 36.1 µM (inactive) in experiment [9]; > 100 µM (inactive) in experiment [8]; 34.4 µM (inactive) in experiment [2]; > 100 µM (inactive) in experiment [3]; 6.01 µM (inactive) in experiment [4]. Moreover, the GI50 in experiment [5] was 18.4 µM (inactive); in experiment [6] it was 20.2 µM (inactive); in [7], > 100 µM (inactive).
For the molecule `C/C(=C/c1c(C)[nH]c(=O)[nH]c1=O)C(=O)O`, the GI50 in experiment [1], in experiment [2], in experiment [3], in experiment [4], in experiment [5] and in [6] was > 1370 µM (inactive) throughout. In addition, the GI50 in experiment [7] was > 1370 µM (inactive).
`Cc1cccc(C)c1NC(=O)C(=O)C1C(=O)N(c2ccccc2)N=C1N` (stereo not given): the GI50 in [1], in experiment [8], in experiment [2], in experiment [3], in [5] and in experiment [6] was > 100 µM (inactive) each time. For the same molecule, in experiment [7], the GI50 was > 100 µM (inactive).
With `C[C@@H]1O[C@]2(O)[C@@H]3CCCN3S(=O)(=O)CCN2C1=O`, the GI50 in experiment [1] was > 100 µM (inactive); in experiment [9], > 100 µM (inactive); in experiment [8] it was > 100 µM (inactive); in [3], > 100 µM (inactive); in [4], 8.41 µM (inactive); in [5], > 100 µM (inactive). Besides, the GI50 in experiment [7] is > 100 µM (inactive).
On to `COc1ccc(NC(=O)C(=O)NO)c(OC)c1`, for which the GI50 is 21.9 µM (inactive) in experiment [1]; 18.6 µM (inactive) in experiment [9]; 16.7 µM (inactive) in experiment [8]; 16.6 µM (inactive) in experiment [2]; 19.1 µM (inactive) in experiment [3]; 19.8 µM (inactive) in experiment [5]. Moreover, the GI50 in experiment [6] is 15.5 µM (inactive); in experiment [7], 17.3 µM (inactive).
For the molecule `CCOC(=O)c1c(-c2ccccc2)c(C(OC(c2ccccc2)c2c(-c3ccccc3)c(C(=O)OCC)n3ccccc23)c2ccccc2)c2ccccn12` (stereo not given), the GI50 in experiment [8], in [2], in experiment [3], in experiment [4], in experiment [5] and in experiment [7] was > 100 µM (inactive) throughout.
Take `CN=S(=O)(C[C@]1(O)CC2OC1C1OC(C)(C)OC21)c1ccccc1` (stereo not given in full): the GI50 in [1], in experiment [8], in [2], in experiment [3], in experiment [4] and in [5] was > 100 µM (inactive) in each case. Besides, the GI50 in [6] is > 100 µM (inactive).
Turning to `O=C1/C(=C/c2ccccc2)CCC/C1=C\c1ccccc1` [2,6-DIBENZYLIDENECYCLOHEXANONE], the GI50 in [1] is 1.97 µM (inactive); in [9] it was 17.7 µM (inactive); in [8] it was 4.5 µM (inactive); in experiment [2] it was 8.04 µM (inactive); in experiment [3] it was 8.79 µM (inactive); in experiment [5], 17.5 µM (inactive). For the same molecule, the GI50 was 9.68 µM (inactive) in experiment [6] and 19.5 µM (inactive) in experiment [7].
